# Assay results from patent US8163909B2, “Substituted hydroxyethyl amine compounds as beta-secretase modulators and methods of use” (Amgen Inc., priority 2007, dated 2012).
# Like-named read-outs stand apart in the source and are kept apart here.
# Tests used:
# [1] = molecular target: Beta Secretase enzyme (BACE) (Homo sapiens, UniProt P56817); assay: In vitro enzymatic BACE FRET (fluorescence resonance energy transfer) assay; type: biochemical; conditions: read-out: BACE1 FRET assay;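 note: fluorescence read after 1 h with 50 nM quenched peptide substrate spanning the BACE cleavage site, in pH 4.2 acetate buffer containing 10% DMSO and nonionic detergent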
# Beta Secretase enzyme (BACE), sequence (P56817 46-501): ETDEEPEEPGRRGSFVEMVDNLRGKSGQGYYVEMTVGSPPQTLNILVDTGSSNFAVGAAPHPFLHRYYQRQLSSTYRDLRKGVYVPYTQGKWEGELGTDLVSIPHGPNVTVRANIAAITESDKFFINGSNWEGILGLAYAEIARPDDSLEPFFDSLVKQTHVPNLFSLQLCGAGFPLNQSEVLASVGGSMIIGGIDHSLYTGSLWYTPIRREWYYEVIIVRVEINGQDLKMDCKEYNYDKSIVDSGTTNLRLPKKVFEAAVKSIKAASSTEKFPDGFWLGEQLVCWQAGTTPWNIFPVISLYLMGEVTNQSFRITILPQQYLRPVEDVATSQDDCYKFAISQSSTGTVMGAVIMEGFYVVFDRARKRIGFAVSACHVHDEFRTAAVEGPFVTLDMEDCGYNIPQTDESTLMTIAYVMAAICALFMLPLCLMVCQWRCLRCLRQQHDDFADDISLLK
# CYP3A4 (CYP3A) = CYP3A4 (CYP3A) (Homo sapiens, UniProt P08684); assay: in vitro; conditions: microsomes, pH 7.4;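 note: inhibition of CYP3A-mediated 1-hydroxymidazolam formation after 10 min incubation with NADPH, quantified by HPLC MS relative to metabolite produced without test compound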
# CYP3A4 (CYP3A), sequence (P08684 2-503): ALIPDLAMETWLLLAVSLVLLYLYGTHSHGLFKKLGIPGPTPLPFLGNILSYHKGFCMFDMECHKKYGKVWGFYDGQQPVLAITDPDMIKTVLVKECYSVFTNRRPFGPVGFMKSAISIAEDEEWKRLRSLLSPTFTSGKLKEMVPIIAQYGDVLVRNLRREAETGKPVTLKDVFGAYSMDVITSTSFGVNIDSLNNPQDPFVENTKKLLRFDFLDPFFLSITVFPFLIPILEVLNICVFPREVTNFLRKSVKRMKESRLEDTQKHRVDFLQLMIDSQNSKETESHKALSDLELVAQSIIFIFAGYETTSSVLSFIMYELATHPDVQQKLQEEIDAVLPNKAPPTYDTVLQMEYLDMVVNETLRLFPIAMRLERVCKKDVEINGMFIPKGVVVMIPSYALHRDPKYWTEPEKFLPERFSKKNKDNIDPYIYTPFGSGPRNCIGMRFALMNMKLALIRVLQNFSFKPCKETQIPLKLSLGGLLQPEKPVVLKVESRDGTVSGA
# [2] = Microsomal stability assay, human liver microsomes; conditions: human liver microsomal data;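 note: pooled human liver microsomes at 0.25 mg/mL with 1 µM compound and NADPH at 37 °C, pH 7.4, for 30 min, unchanged parent quantified by LC-MS/MS against the 0 min sample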
# CYP2D6 = CYP2D6 (Homo sapiens, UniProt P10635); assay: CYP2D6 inhibition assay (bufuralol, pooled human liver microsomes)
# CYP2D6, sequence (P10635 whole entry): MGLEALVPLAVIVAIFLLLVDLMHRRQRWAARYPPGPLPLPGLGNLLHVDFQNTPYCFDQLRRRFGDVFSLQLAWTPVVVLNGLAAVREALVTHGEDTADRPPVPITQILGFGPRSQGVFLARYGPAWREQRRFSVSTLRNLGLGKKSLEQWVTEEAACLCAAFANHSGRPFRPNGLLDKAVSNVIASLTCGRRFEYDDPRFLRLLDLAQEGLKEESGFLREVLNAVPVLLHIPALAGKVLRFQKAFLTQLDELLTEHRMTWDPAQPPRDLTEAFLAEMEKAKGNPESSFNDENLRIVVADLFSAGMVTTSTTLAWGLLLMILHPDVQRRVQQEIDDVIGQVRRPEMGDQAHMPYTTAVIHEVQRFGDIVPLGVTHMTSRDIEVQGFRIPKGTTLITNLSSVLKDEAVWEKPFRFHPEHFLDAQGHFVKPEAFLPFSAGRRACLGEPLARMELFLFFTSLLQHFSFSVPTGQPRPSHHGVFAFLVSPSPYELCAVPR
# [3] = Microsomal stability assay, rat liver microsomes; conditions: rat liver microsomal data;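 note: rat liver microsomes (0.25 mg/mL) with about 1 µM compound plus 1 mM NADPH, pH 7.4, 37 °C for 30 min, parent left measured by LC-MS/MS against 0 min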
# [4] = test system: Aβ40 in conditioned medium of cells stably expressing Amyloid Precursor Protein (APP); assay: In vitro BACE cell-based assay (Aβ40 in conditioned medium, sandwich ELISA); conditions: Homo sapiens, read-out: HEK cell assay;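 note: compounds added as a dilution series, secreted peptide quantified by europium time-resolved fluorescence readout, potency fitted from percent of control versus compound concentration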
# [5] = BACE enzyme assay, IC50's in uM
# [6] = 2D6 IC50, CYP enzyme inhibition
Structure (SMILES),"IC50 [1, 5]",IC50 (CYP3A4 (CYP3A)),HLM [2],"IC50 (CYP2D6; 2D6 IC50 (uM), CYP enzyme inhibition)",RLM [3],"IC50 ([4]; HEK293, HEK cell-based assay, IC50's in uM)",IC50 (CYP2D6; [6]),"IC50 ([4]; HEK293, cell-based assay, HEK cells, IC50's in uM)",IC50 ([1]; Table 2),"IC50 ([4]; HEK293, Table 2, HEK cells)"
"C#Cc1cccc(C[C@H](NC(=O)[C@@H](C)OC)[C@H](O)CN[C@H]2CC3(CCC3)Oc3ncc(CC(C)C)cc32)c1 [Example 777, (2R)-N-((1S,2R)-1-(3-ethynylbenzyl)-2-hydroxy-3-(((4′S)-6′-(2-methylpropyl)-3′,4′-dihydrospiro[cyclobutane-1,2′-pyrano[2,3-b]pyridin]-4′-yl)amino)propyl)-2-methoxypropanamide]",0.006 µM,100 nM,29 µL/min/mg,2.1 µM,38 µL/min/mg,0.013 µM,,,,
"C#Cc1cc(F)cc(C[C@H](NC(=O)COC)[C@H](O)CN[C@H]2CC3(CCC3)Oc3ncc(CC(C)C)cc32)c1 [Example 856, N-((1S,2R)-1-(3-ethynyl-5-fluorobenzyl)-2-hydroxy-3-(((4′S)-6′-(2-methylpropyl)-3′,4′-dihydrospiro[cyclobutane-1,2′-pyrano[2,3-b]pyridin]-4′-yl)amino)propyl)-2-methoxyacetamide]",0.002 µM,150 nM,63 µL/min/mg,,78 µL/min/mg,,1 µM,0.009 µM,,
C[C@@H](O)C(=O)N[C@@H](Cc1ccc(F)cc1)[C@H](O)CN[C@H]1CC2(CCC2)Oc2ncc(CC(C)(C)C)cc21 [compound 442],,750 nM,117.333 µL/min/mg,,150.333 µL/min/mg,,6.75 µM,,0.013 µM,0.016 µM
CO[C@H](C)C(=O)N[C@@H](Cc1ccc2c(c1)OCO2)[C@H](O)CN[C@H]1CC2(CCC2)Oc2c1cc(CC(C)(C)C)nc2N(C)C [compound 444],,7500 nM,399 µL/min/mg,,662 µL/min/mg,,9.4 µM,,0.298 µM,0.777 µM
COCC(=O)N[C@@H](Cc1ccc2c(c1)OCO2)[C@H](O)CN[C@H]1CC2(CCC2)Oc2ncc(CCC(F)(F)F)cc21 [compound 445],,200 nM,24 µL/min/mg,,121 µL/min/mg,,4.1 µM,,0.754 µM,0.621 µM
COCC(=O)N[C@@H](Cc1ccc2c(c1)OCO2)[C@H]1CN([C@H]2CC3(CCC3)Oc3ncc([C@H](F)C(C)(C)C)cc32)C(=O)O1 [compound 446],,200 nM,150 µL/min/mg,,106 µL/min/mg,,1.2 µM,,6.32 µM,> 10 µM
CC(C)(C)Cc1cnc2c(c1)[C@@H](NC[C@@H](O)[C@H](Cc1ccc3c(c1)OCO3)NC(=O)[C@H]1CCC(=O)C1)CC1(CCC1)O2 [compound 450],,400 nM,76 µL/min/mg,,170 µL/min/mg,,8.6 µM,,0.15 µM,0.183 µM
COCC(=O)N[C@@H](Cc1ccc(F)cc1)[C@H](O)CN[C@H]1CC2(CCC2)Oc2c1cc(CC(C)(C)C)nc2-c1nccs1 [compound 451],,600 nM,248 µL/min/mg,,682 µL/min/mg,,9.4 µM,,0.019 µM,0.271 µM
CO[C@H](C)C(=O)N[C@@H](Cc1ccc2c(c1)OCO2)[C@H](O)CN[C@H]1CC2(CCC2)Cc2sc(CC(C)(C)C)cc21 [compound 455],,2600 nM,211 µL/min/mg,,201 µL/min/mg,,5.5 µM,,0.049 µM,0.231 µM
CO[C@@H](C)C(=O)N[C@@H](Cc1ccc2c(c1)OCO2)[C@H](O)CN[C@H]1CC2(CCC2)Cc2sc(CC(C)(C)C)cc21 [compound 456],,900 nM,74 µL/min/mg,,97 µL/min/mg,,3.1 µM,,0.359 µM,0.723 µM
CC(=O)C(C)(C)C(=O)N[C@@H](Cc1ccc2c(c1)OCO2)[C@H](O)CN[C@H]1CC2(CCC2)Oc2ncc(CC(C)(C)C)cc21 [compound 457],,100 nM,44 µL/min/mg,,90 µL/min/mg,,2.4 µM,,0.792 µM,0.905 µM
COCC(=O)N[C@@H](Cc1cc(F)cc(F)c1)[C@H](O)CN[C@H]1CC2(CCC2)Oc2c1cc(CC(C)C)cc2-n1ccnc1 [compound 458],,100 nM,25.5 µL/min/mg,,188.5 µL/min/mg,,0.9 µM,,0.017 µM,0.012 µM
CO[C@H](C)C(=O)N[C@@H](Cc1cc(F)cc(F)c1)[C@H](O)CN[C@H]1CC2(CCC2)Oc2c(-c3nccs3)cc(CC(C)C)cc21 [compound 459],,400 nM,399 µL/min/mg,,399 µL/min/mg,,10.2 µM,,0.004 µM,0.046 µM
COCC(=O)N[C@@H](Cc1cc(F)cc(F)c1)[C@H](O)CN[C@H]1CC2(CCC2)Oc2c(-c3nccs3)cc(CC(C)C)cc21 [compound 460],,800 nM,775 µL/min/mg,,775 µL/min/mg,,3.9 µM,,0.001 µM,0.028 µM
COCC(=O)N[C@@H](C[C@@H]1CCOC1)[C@H](O)CN[C@H]1CC2(CCC2)Oc2ncc(CC(C)(C)C)cc21 [compound 462],,8500 nM,107 µL/min/mg,,68 µL/min/mg,,16.9 µM,,0.432 µM,0.649 µM
COCC(=O)N[C@@H](Cc1cc(F)cc(F)c1)[C@H](O)CN[C@H]1CC2(CCC2)Oc2c(-c3nccs3)cc(CC(C)(C)C)cc21 [compound 463],,1100 nM,682 µL/min/mg,,662 µL/min/mg,,7.2 µM,,0.003 µM,0.048 µM
COCC(=O)N[C@@H](Cc1cc(F)cc(F)c1)[C@H](O)CN[C@H]1CC2(CCC2)Oc2c(Br)cc(CC(C)(C)C)cc21 [compound 464],,1500 nM,463 µL/min/mg,,364 µL/min/mg,,11.5 µM,,0.004 µM,0.091 µM
CC(=O)N[C@@H](Cc1cc(F)cc(F)c1)[C@H](O)CN[C@H]1CC2(CCC2)Oc2c1cc(CC(C)(C)C)nc2-n1ccnc1 [compound 465],,100 nM,18.5 µL/min/mg,,51.5 µL/min/mg,,1 µM,,0.019 µM,0.032 µM
CC(=O)CC(=O)N[C@@H](Cc1cccc(F)c1)[C@H](O)CN[C@H]1CC2(CCC2)Oc2ncc(CC(C)(C)C)cc21 [compound 466],,1200 nM,296 µL/min/mg,,165 µL/min/mg,,8.9 µM,,0.004 µM,0.008 µM
CC(=O)C(C)(C)C(=O)N[C@@H](Cc1cccc(F)c1)[C@H](O)CN[C@H]1CC2(CCC2)Oc2ncc(CC(C)(C)C)cc21 [compound 467],,400 nM,399 µL/min/mg,,292 µL/min/mg,,7.3 µM,,0.063 µM,0.209 µM
COCC(=O)N[C@@H](Cc1ccc(F)cc1)[C@H](O)CN[C@H]1CC2(CCC2)Oc2nc(C)c(CC(C)(C)C)cc21 [compound 468],,500 nM,736 µL/min/mg,,662 µL/min/mg,,9.6 µM,,0.097 µM,0.108 µM
CC(=O)N[C@@H](C[C@H]1CCOC1)[C@H](O)CN[C@H]1CC2(CCC2)Oc2ncc(CC(C)(C)C)cc21 [compound 469],,16400 nM,60 µL/min/mg,,35 µL/min/mg,,≥ 27 µM,,0.137 µM,0.162 µM
COCC(=O)N[C@@H](Cc1cccc(C#N)c1)[C@H](O)CN[C@H]1CC2(CC(F)(F)C2)Oc2ncc(CC(C)(C)C)cc21 [compound 470],,1100 nM,579 µL/min/mg,,560 µL/min/mg,,5.8 µM,,0.004 µM,0.014 µM
CO[C@H](C)C(=O)N[C@@H](Cc1cccc(C#N)c1)[C@H](O)CN[C@H]1CC2(CC(F)(F)C2)Oc2ncc(CC(C)(C)C)cc21 [compound 471],,1100 nM,569 µL/min/mg,,536 µL/min/mg,,10.3 µM,,0.004 µM,0.012 µM
CC(C)(C)Cc1cnc2c(c1)[C@@H](NC[C@@H](O)[C@H](Cc1cccc(C#N)c1)NC(=O)[C@H]1CCCO1)CC1(CC(F)(F)C1)O2 [compound 472],,800 nM,736 µL/min/mg,,775 µL/min/mg,,7.1 µM,,0.005 µM,0.015 µM
COCC(=O)N[C@@H](Cc1ccnc(OC)c1)[C@H](O)CN[C@H]1CC2(CCC2)Oc2ncc(CC(C)(C)C)cc21 [compound 474],,2000 nM,172 µL/min/mg,,174 µL/min/mg,,6.5 µM,,0.013 µM,0.022 µM
COCC(=O)N[C@@H](Cc1cc(F)cc(F)c1)[C@H](O)CN[C@H]1CC2(CCC2)Oc2c1cc(CC(C)(C)C)cc2-n1ccnc1 [compound 475],,50 nM,26 µL/min/mg,,128.5 µL/min/mg,,1.75 µM,,0.018 µM,0.008 µM
